Test system: T1, polyphenol oxidase (PPO) from quince leaves
T1 construct: isoenzyme not identified; free enzyme
Assay: absorbance at […] nm, Lineweaver-Burk
Assay type: biochemical, Cydonia oblonga
Settings: free enzyme, partially purified; optimum pH and temperature (pH 7.5, 30 °C), phosphate buffer

Oc1ccccc1O [catechol]
Km: 5.86 mM
